# Assay results taken from paper PMC8621276, “Artemisinin Binds and Inhibits the Activity of Plasmodium falciparum Ddi1, a Retroviral Aspartyl Protease” (Pathogens, 2021).
# Columns and labels:
# Assay type in all cases: biochemical
# PfDdi1 [1] = molecular target: T1, PfDdi1 (Plasmodium falciparum, UniProt Q8IM03); experiment: inhibition of FRET peptide cleavage
# T1 construct: gene PF3D7_1409300; full length (382 aa), His-tagged (pET-28b NcoI/XhoI), E. coli Rosetta (DE3), Ni-NTA; ~44 kDa plus processed ~34 kDa fragment
# T1 sequence (Q8IM03 1-382): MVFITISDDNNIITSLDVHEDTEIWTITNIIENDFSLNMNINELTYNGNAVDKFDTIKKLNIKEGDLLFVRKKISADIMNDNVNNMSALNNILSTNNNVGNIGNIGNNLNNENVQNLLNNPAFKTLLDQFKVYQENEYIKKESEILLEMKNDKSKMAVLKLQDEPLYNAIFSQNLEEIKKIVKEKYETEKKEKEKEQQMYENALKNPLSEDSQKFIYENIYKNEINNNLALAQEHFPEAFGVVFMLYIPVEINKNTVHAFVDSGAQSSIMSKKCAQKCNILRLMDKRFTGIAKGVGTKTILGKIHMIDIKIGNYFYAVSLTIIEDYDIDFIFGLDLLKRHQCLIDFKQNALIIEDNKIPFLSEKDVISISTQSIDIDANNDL
# PfDdi1 [2] = molecular target: T1, PfDdi1; experiment: inhibition of fluorogenic peptide cleavage
# PfDdi1 [3] = molecular target: T1, PfDdi1; experiment: inhibition of FRET peptide, AMC peptide and K48 polyubiquitin cleavage; settings: 10 min preincubation, sodium acetate pH 5.0, 37 °C, 2.0 μM enzyme
smiles,measurement,setting,value
"C[C@@H]1CC[C@H]2[C@@H](C)C(=O)O[C@@H]3O[C@@]4(C)CC[C@@H]1[C@]32OO4 [ART, artemisinin]",inhibition at 1 µM,PfDdi1 [1],71.4%
"Cc1cccc(C)c1OCC(=O)N[C@@H](Cc1ccccc1)[C@@H](O)C[C@H](Cc1ccccc1)NC(=O)[C@H](C(C)C)N1CCCNC1=O [LPV, Lopinavir]",inhibition at 50 µM,PfDdi1 [2],~23.5%
"C[C@@H]1CC[C@H]2[C@@H](C)C(O)O[C@@H]3O[C@@]4(C)CC[C@@H]1[C@]32OO4 (stereo partly drawn) [DHA, Dihydroartemisinin]",% inhibition at 1 μM,PfDdi1 [3],"artemisinin and its derivative, DHA, significantly inhibited the ability of PfDdi1 to degrade the polyubiquitinated"
